{"source": "patent US11752159B2", "about": "“Compositions and methods for suppressing or reducing systemic immune response in a subject” (THE TRUSTEES OF THE UNIVERSITY OF PENNSYLVANIA, priority 2015, dated 2023)", "key": {"[1]": {"system": "regulatory T cells (Tregs)", "assay": "Topical MC903 on ear skin of wildtype mice, fraction of Tregs in skin, blood and lymphoid organs", "assay_type": "in vivo", "conditions": "2 nmol", "text": "FIGS. 1A-1B comprise graphs relating to topical treatment of B6 mice with EtOH or MC903 (2 nmol) on one ear. FIG. 1A, comprising FACS data and a graph, illustrates the percentage of regulatory T cells (Tregs) in the ear skin homogenate of B6 mice. “Treated” refers to topical administration of MC903 to the ear skin of the B6 mice. “Untreated” refers to topical administration of EtOH to the ear skin of the B6 mice. FIG. 1B comprises graphs illustrating the percentage of Tregs out of CD4+ T cells in the blood, spleen, and peripheral lymph nodes of B6 mice topically treated with MC903. FIG. 2 is a graph illustrating the percentage of Tregs out of CD4+ T cells in the spleen after B6 mice were treated topically or injected intraperitoneally with EtOH or MC903 (2 nmol). Wildtype (WT) mice were treated with vehicle (100% EtOH) or MC903 once a day on the skin of one ear for 7 days. On Day 8, the ear skin of both ears, blood, and secondary lymphoid organs (lymph nodes and spleen) were harvested."}, "[2]": {"system": "regulatory T cells (Tregs)", "assay": "Kinetics of systemic Treg levels after topical MC903 treatment", "assay_type": "in vivo, mice", "conditions": "Day 15, after cessation of topical treatment", "text": "FIG. 3A-3C comprise graphs illustrating data derived from topical treatment of B6 mice with EtOH or MC903 (2 nmol) until […]. Mice were taken at different time points post treatment initiation as indicated. FIG. 3A is a graph illustrating the percentage of Tregs out of CD4+ T cells in the spleen and blood of B6 mice over 18 days. FIG. 3B illustrates the absolute numbers of Tregs in the spleen of B6 mice over 18 days. FIG. 3C illustrates the serum thymic stromal lymphopoietin (TSLP) level change over time in B6 mice over 18 days.\n(§1) Next, the kinetics of the systemic increase in Treg levels was investigated after topical MC903 treatment (treatment stopped on Day 7). The absolute number and the fraction of Tregs increased to a peak between days 6 and 9 and gradually declined thereafter in the spleen and the blood of MC903-treated mice (FIGS. 3A-3B). Circulating TSLP levels peaked at Day 6 and fell abruptly by Day 9 (FIG. 3C)."}, "[3]": {"system": "Tregs and conventional CD4+ T cells (Tconvs)", "assay": "BrdU incorporation in splenic Tregs and conventional T cells", "assay_type": "in vivo, mice", "conditions": "spleen, Day 8, topical 2 nmol daily", "text": "FIGS. 4A-4B comprise graphs illustrating data derived from topical treatment of B6 mice with EtOH or MC903 (2 nmol) daily and BrdU (intraperitoneal injection as a loading dose, followed by administration of drinking water) for the last 3 days. FIG. 4A illustrates Bromodeoxyuridine (BrdU) incorporation in Tregs on Day 8 in the spleen of B6 mice. FIG. 4B illustrates BrdU incorporation in conventional T cells (Tconvs) on Day 8 in the spleen of B6 mice.\nas §1"}, "ApoE KO mice": {"system": "ApoE KO mice", "assay": "ApoE KO mouse model of atherosclerosis, topical MC903", "assay_type": "in vivo", "conditions": "high fat Western diet, topical 3 times/week every other week for 10 weeks", "text": "FIGS. 6A-6B comprise graphs illustrating data derived from topical treatment of ApoE KO mice fed a high-fat Western diet with EtOH or MC903 (2 nmol) 3 times/week every other week for 10 weeks. FIG. 6A illustrates the total cholesterol levels at baseline, at week 3, and week 10 of ApoE KO mice. FIG. 6B illustrates the atherosclerotic plaques difference among ApoE KO mice. The full length of the aorta was removed from the mice at week 10 and stained with Oil Red O dye to detect atherosclerotic plaques. The area occupied by the plaque was calculated and divided by the total area of the aorta (% lesion area). N=7 mice/group. * indicates significance of p<0.01 by T-test.\nThe effects of topical application of MC903 on atherosclerotic plaques were investigated. Atherosclerosis is a disease condition where lipid deposition occurs in arterial walls, leading to obstruction of blood flow. Ultimately, these lesions cause morbidity and mortality by affecting blood flow to the heart (myocardial infarction; angina) or the brain (stroke). Although these lesions are formed by cholesterol deposits in patients who have hypercholesterolemia, immune activation is necessary for plaque progression, and Tregs are implicated in dampening the progression of atherosclerosis. It is contemplated that topical MC903 treatment can attenuate plaque progression in atherosclerosis. […]"}, "Tregs": {"system": "Tregs", "assay": "Dosing schedule of chronic topical MC903: circulating Tregs and atopic dermatitis", "assay_type": "in vivo, mice", "text": "FIG. 11 comprises a graph illustrating data derived from topically treating mice with MC903 (2 nmol on one ear) 3 times/week every other week or with MC903 (2 nmol on one ear) 3 times/week every week (alternating ears every week) for 8 weeks. The % of Tregs out of CD4+ T cells in the blood before (baseline) and after treatment (Weeks 1, 4, 6, and 8) is illustrated. N=3 mice/group. * p<0.05 by Student t-test.\nFIG. 12 comprises a graph illustrating data derived from topically treating mice with EtOH or MC903 (2 nmol) 3 times/week every other week for 10 weeks. The % of Tregs out of CD4+ T cells in the blood before (Day 0) and after treatment (Day 8 and Week 10) is illustrated. N=7 mice/group.\nTo test whether chronic MC903 treatment results in sustained increases in Treg numbers, mice were continuously treated with MC903 for more than 2 weeks.\nTo avoid this local toxic effect of MC903, alternating ears were treated every week (right ear for 1 week, followed by the left ear for 1 week, then back to the right ear for 1 week, and so on). […] Without wishing to be limited by any theory, the increase in Tregs appeared to be become refractory to the chronic MC903 treatment. Thus, the protocol was modified so that a 1-week rest period (pulse treatment) was given between weekly treatments."}, "C57BL6 mice": {"system": "C57BL6 mice", "assay": "High fat diet (HFD) type II diabetes mouse model, topical MC903", "assay_type": "in vivo", "conditions": "topical three times a week every other week, vs ethanol", "protocol": "FIG. 13 comprises a graph illustrating the finding that topical administration of MC903 improves overnight fasting glucose levels in mice fed with 12 weeks of high fat diet (HFD).\nTopical administration of MC903 was evaluated in a model of high fat diet (HFD) type II diabetes mice. Male C57BL6 mice, which were 8 weeks at the onset of the study, were used. The mice were fed a high fat diet (45 kcal % of fat; research diet No. D12451, OpenSource Diets) for 20 weeks. During this period, the mice were topically administered ethanol or MC903 three times a week (Monday, Wednesday and Friday), every other week, for the duration of the experiment."}, "[4]": {"conditions": "3 days (every other day)/week every other week"}}}
{"smiles": "C=C1/C(=C\\C=C2/CCC[C@]3(C)[C@@H]([C@H](C)/C=C/[C@@H](O)C4CC4)CC[C@@H]23)C[C@@H](O)C[C@@H]1O", "note": "[MC903, 26,27-cyclo-22-ene-1α,24S-dihydroxyvitamin D3]", "values": [{"measurement": "effect on Tregs (spleen) when injected intraperitoneally", "setting": "[1]; intraperitoneal injection", "result": "No effect"}, {"measurement": "increase in the fraction of Tregs (% Foxp3+ of CD4+ T cells) in treated ear skin", "setting": "[1]; topical once a day on one ear for 7 days, Day 8, compared to EtOH-treated side", "result": "about 2 fold"}, {"measurement": "Treg levels versus EtOH-treated group by Day 15", "setting": "[2]", "result": "no differences"}, {"measurement": "BrdU incorporation by Tregs", "setting": "[3]", "result": "enhanced"}, {"measurement": "BrdU incorporation by conventional CD4+ T cells (Tconvs)", "setting": "[3]", "result": "no significant increase"}, {"measurement": "decrease of % of area occupied by the plaques in the aorta", "setting": "ApoE KO mice", "result": "> 50", "unit": "%"}, {"measurement": "total cholesterol levels", "setting": "ApoE KO mice", "result": "did not alter"}, {"measurement": "atopic inflammation, pulse treatment", "setting": "Tregs; [4]", "result": "atopic inflammation was avoided"}, {"measurement": "circulating Treg numbers, pulse treatment", "setting": "Tregs; [4]", "result": "increased over a 10 week period"}, {"measurement": "Tregs at Day 8, alternating ear protocol", "setting": "Tregs; alternating ears every week, Day 8", "result": "increased systemically"}, {"measurement": "circulating Tregs at Week 4 of treatment and beyond, alternating ear protocol", "setting": "Tregs; alternating ears every week, no rest week", "result": "not increased"}, {"measurement": "atopic dermatitis with alternating ear protocol", "setting": "Tregs; alternating ears treated every week", "result": "minimal atopic dermatitis"}, {"measurement": "local toxicity with chronic once/day treatment of more than 1 week", "setting": "Tregs; mouse, in vivo", "result": "development of atopic dermatitis of the ear skin"}, {"measurement": "overnight fasting glucose levels", "setting": "C57BL6 mice", "result": "improved overnight fasting glucose levels"}]}
